Five molecules from ChEMBL document CHEMBL1201862, “PubChem BioAssay data set” (2004) can be followed below.

Test systems include SN12C; UACC-62; SR; SF-295; RXF 393; SF-539; SK-MEL-2; NCI/ADR-RES; OVCAR-5; Malme-3M; M14; BT-549; DMS-114; OVCAR-8; TK-10; MDA-MB-435; EKVX; DU-145; 786-0; CCRF-CEM.
Common to all, as to assay: NCI-60 cell line screen, 48 h

Structures are written as SMILES.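 Method: 48-hour compound exposure of cells in 96-well plates, five concentrations, linear interpolation of endpoints. The concentration for 50% growth inhibition is given as GI50.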 Activity calls are given as the source filed them. Cut-off read from the data, not from the text of the source: active = GI50 up to about 1.1 µM and inactive = higher. Some results are limits rather than exact numbers.

Consider `CC[C@@H](C)[C@H]([C@H](CC(=O)N1CCC[C@@H]1[C@@H](OC)[C@H](C)C(=O)N[C@H](Cc1ccccc1)c1nccs1)OC)N(C)C(=O)[C@H](NC(=O)[C@@H](C(C)C)N(C)C)C(C)C`, for which the GI50 in the assay on SN12C was 0.000486 µM (active); with UACC-62, 0.000175 µM (active); in the assay on SR, 2.75e-05 µM (active); with SF-295, 0.000146 µM (active); in the assay with RXF 393, 0.000191 µM (active); with SF-539, 0.000168 µM (active). Further, the GI50 with SK-MEL-2 was 0.000125 µM (active); in the assay on NCI/ADR-RES, < 0.01 µM (active); with OVCAR-5 it was 0.0005 µM (active); in the assay with Malme-3M it was 0.000624 µM (active); in the assay with M14, 0.000165 µM (active); in the assay with BT-549, < 0.01 µM (active). The GI50 is 0.000288 µM (active) in the assay on DMS-114; 0.000286 µM (active) in the assay on OVCAR-8; 0.00181 µM (active) in the assay on TK-10; < 0.01 µM (active) in the assay with MDA-MB-435; 0.000277 µM (active) in the assay on EKVX; < 0.01 µM (active) in the assay with DU-145. The GI50 in the assay with 786-0 was 0.000184 µM (active).
`COC(=O)N/N=C(/c1nc2ccc([N+](=O)[O-])cc2nc1O)C(O)c1ccc(OC)c(OC)c1` (centres undefined): the GI50 in the assay on SN12C was > 100 µM (inactive); in the assay on CCRF-CEM, 37.8 µM (inactive); with UACC-62 it was > 100 µM (inactive); with SR it was 19.5 µM (inactive); with SF-295, 98.6 µM (inactive); in the assay with RXF 393 it was > 100 µM (inactive). The GI50 with SF-539 was > 100 µM (inactive); with SK-MEL-2 it was > 100 µM (inactive); with NCI/ADR-RES it was 92 µM (inactive); in the assay with OVCAR-5, > 100 µM (inactive); with Malme-3M, > 100 µM (inactive); in the assay on M14, > 100 µM (inactive). Also, the GI50 in the assay with BT-549 was > 100 µM (inactive); in the assay with DMS-114, 24.7 µM (inactive); with OVCAR-8 it was > 100 µM (inactive); with TK-10, > 100 µM (inactive); with MDA-MB-435, > 100 µM (inactive); in the assay on EKVX, > 100 µM (inactive). The GI50 with DU-145 is > 100 µM (inactive); in the assay with 786-0 it was > 69 µM (inactive).
Consider `CN(C)CCNc1ccc(CO)c2sc3ccc(O)cc3c(=O)c12`, for which the GI50 in the assay on SN12C was 1.23 µM (inactive); in the assay with CCRF-CEM, 0.171 µM (active); in the assay on UACC-62 it was 1.34 µM (inactive); in the assay with SR it was < 0.0157 µM (active); in the assay with SF-295, 1 µM (active); in the assay with RXF 393, 1.96 µM (inactive). The GI50 with SF-539 is 0.459 µM (active); in the assay on SK-MEL-2, 5.21 µM (inactive); in the assay with NCI/ADR-RES, 3.28 µM (inactive); with OVCAR-5, 5.26 µM (inactive); with Malme-3M, 2.66 µM (inactive); with M14, 3.01 µM (inactive). Further, the GI50 in the assay with BT-549 is 2.62 µM (inactive); in the assay with DMS-114, 0.681 µM (active); in the assay on OVCAR-8 it was 1.97 µM (inactive); with TK-10, 8.77 µM (inactive); in the assay with MDA-MB-435, 1.56 µM (inactive); in the assay with EKVX it was 5.13 µM (inactive). Besides, the GI50 was 0.467 µM (active) in the assay on DU-145 and 1.13 µM (inactive) in the assay on 786-0.
Consider `CCCCCCCCCCCCCCCCCCOCC(COP(=O)([O-])OCC[N+](C)(C)C)OC` (centres undefined) [EDELFOSINE], for which the GI50 in the assay on SN12C is 12.1 µM (inactive); with CCRF-CEM, 7.62 µM (inactive); in the assay on UACC-62, 20.5 µM (inactive); in the assay on SR, 7.87 µM (inactive); in the assay with SF-295 it was 9.66 µM (inactive); in the assay on RXF 393, 13.9 µM (inactive). Also, the GI50 in the assay with SF-539 was > 58.5 µM (inactive); with SK-MEL-2, 31.3 µM (inactive); in the assay on NCI/ADR-RES, 42.3 µM (inactive); with OVCAR-5 it was 15.9 µM (inactive); in the assay with Malme-3M it was 29.6 µM (inactive); with M14, 32.9 µM (inactive). Also, the GI50 is 48.8 µM (inactive) with BT-549; 13.4 µM (inactive) with DMS-114; 32.1 µM (inactive) in the assay on OVCAR-8; 19 µM (inactive) in the assay on TK-10; 98.4 µM (inactive) with MDA-MB-435; 44.3 µM (inactive) in the assay on EKVX. Besides, the GI50 in the assay on DU-145 is > 100 µM (inactive); in the assay with 786-0 it was 22.3 µM (inactive).
As to `CC1CN1C(=O)NCCCCCCNC(=O)N1CC1C` (centres undefined), the GI50 with SN12C is 61.8 µM (inactive); in the assay with CCRF-CEM, 14.7 µM (inactive); in the assay on UACC-62, 31.8 µM (inactive); with SR it was 3.11 µM (inactive); in the assay with SF-295, 54.3 µM (inactive); in the assay with RXF 393, > 100 µM (inactive). Also, the GI50 in the assay with SF-539 was 35 µM (inactive); with SK-MEL-2, > 100 µM (inactive); in the assay on NCI/ADR-RES, 78.7 µM (inactive); in the assay with OVCAR-5, > 100 µM (inactive); in the assay on Malme-3M, > 100 µM (inactive); in the assay on M14, 68.2 µM (inactive). Besides, the GI50 in the assay on BT-549 was > 100 µM (inactive); in the assay on DMS-114, > 36.2 µM (inactive); with OVCAR-8, 69 µM (inactive); in the assay with TK-10, > 100 µM (inactive); in the assay with MDA-MB-435, > 100 µM (inactive); in the assay on EKVX, > 100 µM (inactive). Moreover, the GI50 with DU-145 is 22.2 µM (inactive); with 786-0, 51.6 µM (inactive).
